Laboratory results: patent publication US20260083865A1, “PROSTATE SPECIFIC MEMBRANE ANTIGEN (PSMA) LIGANDS AND USE THEREOF” (priority 2022, published 2026)
Numbered stars: 1 amine (or outer) side, 2 acyl side, 3 side chain; on linkers, the order of the positions; unused ones are H or OH. Bridge positions count the residues as written; N and C are the ends. Square brackets hold non-standard residues; d marks the D form. Peptide text beside a SMILES is read from it. * marks the point of attachment. DOTA = O=C(O)CN1CCN(CC(=O)O)CCN(CC(=O)*)CCN(CC(=O)O)CC1; Lys(Me3) = C[N+](C)(C)CCCC[C@H](N)C(=O)O; Phe(3-Cl) = N[C@@H](Cc1cccc(Cl)c1)C(=O)O; Phe(4-Cl) = N[C@@H](Cc1ccc(Cl)cc1)C(=O)O; Arg(Me) = CNC(=N)NCCC[C@H](N)C(=O)O; X1 = O=C(CC1CCN([*:1])CC1)[*:2]; Aad = N[C@@H](CCCC(=O)O)C(=O)O; Tle = CC(C)(C)[C@H](N)C(=O)O; Aib = CC(C)(N)C(=O)O; CO = O=C([*:1])[*:2]; Guanidino = N=C(N)N*; NHBu = CCCCN*

Key:
[1] = target: T1, Fc-fusion protein of human PSMA (hPSMA-Fc) (Homo sapiens, UniProt Q04609); assay: Surface plasmon resonance assay (Biacore T200, single cycle kinetic); type: binding; settings: pKD category for PSMA SPR activity assay, hPSMA-Fc, 25° C.; read-out: pKD CAT (converted)
T1 construct: purchased Acro Biosystems PSA-H5264
T1 sequence (Q04609 44-750 limits assumed): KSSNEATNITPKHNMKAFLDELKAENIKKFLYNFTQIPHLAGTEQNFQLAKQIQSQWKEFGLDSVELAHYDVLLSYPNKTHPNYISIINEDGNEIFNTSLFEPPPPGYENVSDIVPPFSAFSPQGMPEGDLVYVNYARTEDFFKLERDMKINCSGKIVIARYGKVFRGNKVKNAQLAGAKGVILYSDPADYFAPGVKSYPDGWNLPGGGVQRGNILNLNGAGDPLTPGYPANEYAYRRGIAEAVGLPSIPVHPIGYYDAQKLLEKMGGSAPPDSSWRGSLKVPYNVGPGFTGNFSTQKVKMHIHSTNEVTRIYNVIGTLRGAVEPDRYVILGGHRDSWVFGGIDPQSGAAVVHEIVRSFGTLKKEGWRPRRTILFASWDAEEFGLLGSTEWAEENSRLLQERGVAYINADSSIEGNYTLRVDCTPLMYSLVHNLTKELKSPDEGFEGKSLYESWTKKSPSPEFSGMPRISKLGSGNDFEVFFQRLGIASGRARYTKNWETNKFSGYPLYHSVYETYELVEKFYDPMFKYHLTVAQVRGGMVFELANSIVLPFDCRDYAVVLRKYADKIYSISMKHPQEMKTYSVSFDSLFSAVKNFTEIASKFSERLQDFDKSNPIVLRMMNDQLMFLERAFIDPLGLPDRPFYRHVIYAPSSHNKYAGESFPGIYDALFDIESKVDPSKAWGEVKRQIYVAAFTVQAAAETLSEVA
In short: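 KD, expressed as pKD, came from 1:1 Langmuir fits of reference- and buffer-blank-subtracted SPR data. The runs were single-cycle kinetics at 25° C in HBST/0.1% DMSO over human PSMA-Fc, captured to ~1000 RU on a peptide-coated CM5 surface and regenerated with 10 mM glycine pH 1.5.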

[2] = target: T2, PSMA-expressing C4-2 cells (Homo sapiens, UniProt Q04609); assay: FACS binding assay (competition with 50 nM PSM-0183); settings: pIC50 category of FACS binding, C4-2 cells; read-out: pIC50 [C4-2] CAT (converted)
T2 construct: PSMA-expressing C4-2 cells (ATCC, Cat. No. CRL-3314) were cultured in RPMI-1640; host or cells: C4-2 cells
T2 sequence (Q04609 whole entry): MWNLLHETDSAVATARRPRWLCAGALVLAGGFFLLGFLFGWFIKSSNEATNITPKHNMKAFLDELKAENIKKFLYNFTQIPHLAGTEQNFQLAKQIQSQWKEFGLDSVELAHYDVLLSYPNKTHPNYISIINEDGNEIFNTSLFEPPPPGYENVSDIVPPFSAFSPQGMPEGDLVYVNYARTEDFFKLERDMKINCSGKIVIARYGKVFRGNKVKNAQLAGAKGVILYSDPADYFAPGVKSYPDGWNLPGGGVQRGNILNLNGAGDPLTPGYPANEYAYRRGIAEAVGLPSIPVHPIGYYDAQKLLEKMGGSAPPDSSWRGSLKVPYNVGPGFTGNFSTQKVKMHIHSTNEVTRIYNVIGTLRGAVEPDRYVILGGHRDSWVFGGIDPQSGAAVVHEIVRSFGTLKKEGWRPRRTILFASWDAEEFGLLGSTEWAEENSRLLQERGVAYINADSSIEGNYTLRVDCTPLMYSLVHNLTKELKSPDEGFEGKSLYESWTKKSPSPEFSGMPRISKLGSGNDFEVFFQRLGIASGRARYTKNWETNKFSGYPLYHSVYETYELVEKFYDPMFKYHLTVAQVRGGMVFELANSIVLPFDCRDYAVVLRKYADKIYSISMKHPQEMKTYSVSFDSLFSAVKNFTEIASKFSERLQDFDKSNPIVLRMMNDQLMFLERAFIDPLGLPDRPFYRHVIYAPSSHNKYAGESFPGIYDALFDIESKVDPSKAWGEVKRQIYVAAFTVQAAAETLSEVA
In short: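 Competition format: fluorescent tracer PSM-0183 (50 nM) displaced from PSMA on C4-2 cells by a test compound titration over 1 h at 4 °C. Bound tracer was quantified as flow-cytometric AF488 median fluorescence after washing. Four-parameter logistic fits of MFI data gave IC50 and pIC50.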

Row | Kd [1] [nM] | IC50 [2] [nM] | Compound
1 | 12.6 to 126 | < 200 | CC(=O)N[C@H](C(=O)NC(C)(C)C(=O)N[C@@H](Cc1ccc(O)cc1)C(=O)N[C@H]1CSSC[C@@H](C(=O)N[C@H](C(=O)N[C@H](C(=O)N[C@@H](CC(=O)O)C(N)=O)[C@@H](C)O)C(C)(C)C)NC(=O)[C@H](CC(N)=O)NC(=O)C(C)(C)NC(=O)[C@H](CCCNC(=N)N)NC(=O)[C@H](CCCCN)NC1=O)[C@@H](C)O [PSM-0488, Ac-Thr-Aib-Tyr-[Cys-Lys-Arg-Aib-Asn-Cys]-Tle-Thr-Asp-NH2] (Ac-T[Aib]YCKR[Aib]NC[Tle]TD-NH2; disulfide 4-9)
2 | < 12.6 | < 200 | C[C@@H](O)[C@H](NC(=O)[C@@H](NC(=O)[C@@H]1CSSC[C@H](NC(=O)[C@H](Cc2ccc(Cl)cc2)NC(=O)C(C)(C)NC(=O)CC2CCN(C(=O)CN3CCN(CC(=O)O)CCN(CC(=O)O)CCN(CC(=O)O)CC3)CC2)C(=O)N[C@@H](CCCCN)C(=O)N[C@@H](CCC(=O)NC(=N)N)C(=O)NC(C)(C)C(=O)N[C@@H](CC(N)=O)C(=O)N1)C(C)(C)C)C(N)=O [PSM-0489, DOTA-Cmp-Aib-Pcf-[Cys-Lys-Gin (Gu)-Aib-Asn-Cys]-Tle-Thr-NH2] ({DOTA}-[X1][Aib][Phe(4-Cl)]CKE(Guanidino)[Aib]NC[Tle]T-NH2; disulfide 4-9)

Second part, the molecule before the results:

Row | Compound | Kd [1] [nM] | IC50 [2] [nM]
3 | CC(=O)N[C@H](C(=O)NC(C)(C)C(=O)N[C@@H](Cc1ccc(Cl)cc1)C(=O)N[C@H]1CSSC[C@@H](C(=O)N[C@H](C(=O)N[C@H](C(=O)N2CCC(CC(=O)N[C@H](CCCCNC(=O)CN3CCN(CC(=O)O)CCN(CC(=O)O)CCN(CC(=O)O)CC3)C(N)=O)CC2)[C@@H](C)O)C(C)(C)C)NC(=O)[C@H](CC(N)=O)NC(=O)C(C)(C)NC(=O)[C@H](CCCNC(=N)N)NC(=O)[C@H](CCCCN)NC1=O)[C@@H](C)O [PSM-0482, Ac-Thr-Aib-Pcf-[Cys-Lys-Arg-Aib-Asn-Cys]-Tle-Thr-Cmp-lys(DOTA)-NH2] (Ac-T[Aib][Phe(4-Cl)]CKR[Aib]NC[Tle]T[X1][dK](DOTA)-NH2; disulfide 4-9) | < 12.6 | < 200
4 | CNC(=N)NCCC[C@@H]1NC(=O)[C@H](CCCC[N+](C)(C)C)NC(=O)[C@@H](NC(=O)[C@H](Cc2ccc(Cl)cc2)NC(=O)C(C)(C)NC(=O)[C@@H](NC(=O)CC2CCN(C(=O)CN3CCN(CC(=O)O)CCN(CC(=O)O)CCN(CC(=O)O)CC3)CC2)[C@@H](C)O)CSSC[C@@H](C(=O)N[C@H](C(=O)N[C@H](C(N)=O)[C@@H](C)O)C(C)(C)C)NC(=O)[C@H](CC(N)=O)NC(=O)C(C)(C)NC1=O [PSM-0483, DOTA-Cmp-Thr-Aib-Pcf-[Cys-KMe3-Arg(Me)-Aib-Asn-Cys]-Tle-Thr-NH2] ({DOTA}-[X1]T[Aib][Phe(4-Cl)]C[Lys(Me3)][Arg(Me)][Aib]NC[Tle]T-NH2; disulfide 5-10) | 12.6 to 126 | < 200
5 | CCCCNC(=O)N[C@H](C(=O)NC(C)(C)C(=O)N[C@@H](Cc1ccccc1)C(=O)N[C@H]1CSSC[C@@H](C(=O)N[C@H](C(=O)N[C@H](C(=O)N2CCC(CC(=O)N[C@H](CCCCNC(=O)CN3CCN(CC(=O)O)CCN(CC(=O)O)CCN(CC(=O)O)CC3)C(N)=O)CC2)[C@@H](C)O)C(C)(C)C)NC(=O)[C@H](CC(N)=O)NC(=O)C(C)(C)NC(=O)[C@H](CCCNC(=N)N)NC(=O)[C@H](CCCCN)NC1=O)[C@@H](C)O [PSM-0484, nBuCAyl-Thr-Aib-Phe-[Cys-Lys-Arg-Aib-Asn-Cys]-Tle-Thr-Cmp-lys(DOTA)-NH2] ({NHBu-CO}-T[Aib]FCKR[Aib]NC[Tle]T[X1][dK](DOTA)-NH2; disulfide 4-9) | < 12.6 | < 200
6 | C[C@@H](O)[C@H](NC(=O)[C@@H](NC(=O)[C@@H]1CSSC[C@H](NC(=O)[C@H](Cc2ccc(Cl)cc2)NC(=O)C(C)(C)NC(=O)[C@@H](NC(=O)CC2CCN(C(=O)CN3CCN(CC(=O)O)CCN(CC(=O)O)CCN(CC(=O)O)CC3)CC2)[C@@H](C)O)C(=O)N[C@@H](CCCC(N)=O)C(=O)N[C@@H](CCCNC(=N)N)C(=O)NC(C)(C)C(=O)N[C@@H](CC(N)=O)C(=O)N1)C(C)(C)C)C(N)=O [PSM-0485, DOTA-Cmp-Thr-Aib-Pcf-[Cys-Hgn-Arg-Aib-Asn-Cys]-Tle-Thr-NH2] ({DOTA}-[X1]T[Aib][Phe(4-Cl)]C[Aad](NH2)R[Aib]NC[Tle]T-NH2; disulfide 5-10) | < 12.6 | < 200
7 | CC(=O)N[C@H](C(=O)NC(C)(C)C(=O)N[C@@H](Cc1cccc(Cl)c1)C(=O)N[C@H]1CSSC[C@@H](C(=O)N[C@H](C(=O)N[C@H](C(=O)N2CCC(CC(=O)N[C@H](CCCCNC(=O)CN3CCN(CC(=O)O)CCN(CC(=O)O)CCN(CC(=O)O)CC3)C(N)=O)CC2)[C@@H](C)O)C(C)(C)C)NC(=O)[C@H](CC(N)=O)NC(=O)C(C)(C)NC(=O)[C@H](CCCNC(=N)N)NC(=O)[C@H](CCCCN)NC1=O)[C@@H](C)O [PSM-0486, Ac-Thr-Aib-Mcf-[Cys-Lys-Arg-Aib-Asn-Cys]-Tle-Thr-Cmp-lys(DOTA)-NH2] (Ac-T[Aib][Phe(3-Cl)]CKR[Aib]NC[Tle]T[X1][dK](DOTA)-NH2; disulfide 4-9) | < 12.6 | < 200
